Data: the supplement of paper PMC10331698
± gives the standard deviation of the averaged measurements.

Legend:
Assay in all cases: level (log10 ratio to DMSO vehicle control); higher = higher biomarker level / cell amount than vehicle control
Conditions in all cases: in DMSO
[1] = compound: COC(=O)C(F)(F)C(F)(F)OC(F)(C(F)(F)F)C(F)(F)OC(F)=C(F)F [Methyl perfluoro(3-(1-ethenyloxypropan-2-yloxy)propanoate)]
Protocol: (§1)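 BioMAP Diversity Plus panel of 12 human primary cell co-culture systems (3C, 4H, LPS, SAg, BT, BF4T, BE3C, CASM3C, HDF3CGF, KF3CT, MyoF, Mphg). Compounds were added 1 h before stimulation and left for 24 h (MyoF 48 h; BT 72 h for soluble read-outs or 6 d for IgG). Biomarkers were read by ELISA, cytotoxicity by SRB, PBMC viability and proliferation by Alamar Blue. Each well value was divided by the mean of 8 DMSO control wells on the same plate and log10 transformed; duplicate blinded samples were tested at 4 concentrations.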

[2] = compound: NC(=O)C(F)(F)C(F)(F)C(F)(F)C(F)F
Protocol: as §1

[3] = compound: FC(F)(F)C(F)(F)C(F)(F)CI [Heptafluorobutyl iodide]
Protocol: as §1

[4] = compound: NC(=O)C(F)(F)C(F)(F)C(F)(F)C(F)(F)F [Nonafluoropentanamide]
Protocol: as §1

[5] = compound: FC(F)(F)C(F)(F)C(F)(F)CC1CO1 [1H,1H-Heptafluorobutyl epoxide]
Protocol: as §1

[6] = compound: O=C(O)C(F)(F)C(F)(F)C(F)(F)C(F)(F)C(F)(F)C(F)(F)C(F)(F)C(F)(F)C(F)(F)C(F)F [11-H-Perfluoroundecanoic acid]
Protocol: as §1

[7] = compound: FC(F)(F)C(F)(F)C(F)(F)C(F)(F)C(F)(F)C(F)(F)CC1CO1 [3-(Perfluorohexyl)-1,2-epoxypropane]
Protocol: as §1

| Test System | level (log10) ([1]; 6700 nM) | level (log10) ([1]; 20000 nM) | level (log10) ([2]; 6700 nM) | level (log10) ([2]; 20000 nM) | level (log10) ([2]; 60000 nM) | level (log10) ([3]; 6700 nM) | level (log10) ([3]; 20000 nM) | level (log10) ([3]; 60000 nM) | level (log10) ([4]; 6700 nM) | level (log10) ([4]; 20000 nM) | level (log10) ([4]; 60000 nM) | level (log10) ([5]; 6700 nM) | level (log10) ([5]; 20000 nM) | level (log10) ([5]; 60000 nM) | level (log10) ([6]; 6700 nM) | level (log10) ([6]; 20000 nM) | level (log10) ([7]; 6700 nM) | level (log10) ([7]; 20000 nM) | level (log10) ([7]; 60000 nM) |
| --- | --- | --- | --- | --- | --- | --- | --- | --- | --- | --- | --- | --- | --- | --- | --- | --- | --- | --- | --- |
| CASM3C:HLA-DR | 0.0145 ± 0.015 | 0.0155 ± 0.022 | -0.0125 ± 0.042 | -0.0075 ± 0.016 | -0.008 ± 0.0014 | -0.016 ± 0.024 | -0.022 ± 0.0014 | -0.008 ± 0.0028 | -0.0315 ± 0.005 | -0.0005 ± 0.036 | -0.0275 ± 0.021 | -0.014 ± 0.0099 | -0.017 ± 0.0028 | -0.0165 ± 0.016 | -0.0085 ± 0.0021 | -0.02 ± 0.0028 | -0.016 ± 0.027 | -0.033 ± 0.0071 | 0.009 ± 0.057 |
| CASM3C:IL-6 | -0.018 ± 0.02 | -0.0065 ± 0.025 | -0.0315 ± 0.0064 | -0.0165 ± 0.012 | 0.017 ± 0.05 | -0.01 ± 0.011 | -0.016 ± 0.0014 | 0.009 ± 0.031 | 0.0185 ± 0.06 | -0.0285 ± 0.021 | 0.015 ± 0.014 | -0.0235 ± 0.022 | -0.012 ± 0.0099 | 0.009 ± 0.047 | -0.027 ± 0.014 | -0.0395 ± 0.03 | -0.0375 ± 0.025 | -0.0335 ± 0.012 | 0.001 ± 0.089 |
| CASM3C:LDLR | -0.0035 ± 0.005 | 0.0085 ± 0.033 | -0.008 | -0.006 ± 0.024 | 0.031 ± 0.042 | -0.0015 ± 0.00071 | 0.0025 ± 0.005 | 0.0145 ± 0.015 | 0.0055 ± 0.059 | -0.035 ± 0.0028 | 0.021 ± 0.072 | -0.007 ± 0.0028 | -0.015 ± 0.0057 | 0.002 ± 0.0099 | -0.0025 ± 0.005 | -0.006 ± 0.0099 | -0.003 ± 0.02 | 0.0105 ± 0.012 | 0.025 ± 0.014 |
| CASM3C:M-CSF | -0.0075 ± 0.036 | 0.01 ± 0.025 | -0.0485 ± 0.021 | -0.0535 ± 0.046 | 0.019 ± 0.082 | -0.001 ± 0.0042 | -0.0165 ± 0.0021 | 0.0195 ± 0.037 | -0.0105 ± 0.0021 | -0.0075 ± 0.019 | 0.0195 ± 0.035 | -0.0205 ± 0.029 | -0.015 ± 0.0042 | -0.014 ± 0.033 | 0.0055 ± 0.0035 | -0.004 ± 0.0099 | -0.0025 ± 0.012 | -0.0125 ± 0.011 | 0.0325 ± 0.056 |
| CASM3C:PAI-I | -0.0015 ± 0.0035 | -0.0005 ± 0.012 | -0.005 ± 0.021 | -0.003 ± 0.0085 | -0.008 ± 0.0099 | -0.009 ± 0.0085 | -0.0035 ± 0.005 | -0.011 ± 0.0057 | -0.008 ± 0.024 | -0.0065 ± 0.0064 | 0.0105 ± 0.0064 | -0.0045 ± 0.0092 | 0 ± 0.0057 | 0.005 ± 0.017 | 0.001 ± 0.0057 | 0.006 ± 0.0028 | 0.0055 ± 0.005 | 0.002 ± 0.0085 | 0.017 ± 0.0042 |
| CASM3C:SRB | 0.0015 ± 0.0021 | 0.006 ± 0.0014 | 0.0025 ± 0.00071 | -0.0115 ± 0.005 | -0.0085 ± 0.016 | -0.0085 ± 0.0064 | 0.002 ± 0.0042 | 0.0055 ± 0.0078 | 0.005 ± 0.0057 | 0.0025 ± 0.0035 | 0.0035 ± 0.0035 | -0.006 ± 0.014 | 0.0055 ± 0.0035 | -0.0035 ± 0.005 | 0.0025 ± 0.0078 | 0.008 ± 0.0028 | 0 ± 0.0085 | -0.009 ± 0.0014 | 0.0025 ± 0.00071 |
